What all share (assay): biochemical
Holding throughout (assay type): binding

One experiment deals with T1, HLA-B*15:01 (Homo sapiens, UniProt P01889, A329T/A93T/A95T/C349S/D201E/D98Y/E187L/E204Q/E69M/E70A/K202T/N87E/Q94N/R155S/R180W/S121R/S35A/S48A/V306I/V36M/Y140S/Y91S).
T1 construct: made in house

Another experiment concerns the target T2, HLA-B*51:01 (Homo sapiens, UniProt P01889, A329T/A93T/A95T/C349S/D138N/D201E/D98Y/E187L/E204Q/E69T/G107R/I218V/K202T/L105A/L119W/N104I/Q94N/R106L/R155S/R180L/S101N/S121T/S35A/S48A/V306I/V36M/Y195H/Y91F).
T2 construct: made in house
The settings on record: synthetic peptide, purified MHC.

In the next experiment the target is T3, HLA-A*01:01 (Homo sapiens, UniProt P04439, A114D/A174V/A182V/D101N/D185E/E176A/E190D/L180R/Q94H/R68K/S129P/T187R/V100A/V91M/W191G).
T3 construct: made in house
The settings on record: synthetic peptide, purified MHC.

A further experiment has as its target T4, HLA-B*44:03 (Homo sapiens, UniProt P01889, A223V/A65T/A93T/A95T/D201E/D98Y/E176V/E187L/E204Q/E69K/G107R/H137Y/K202T/L105A/L119I/N104T/N87E/Q56L/Q94N/R106L/R155S/R180L/S101N/S121R/S35A/S48T/T118I/V36M/W191S/Y140D/Y91S).
T4 construct: made in house
As to conditions: synthetic peptide, purified MHC.

For the next experiment, the target named is T5, HLA-B*18:01 (Homo sapiens, UniProt P01889, A329T/A93T/A95T/C349S/D201E/D54G/D98Y/E176V/E187T/E204Q/E69T/K202T/Q94N/R155S/R180L/S121R/V306I/Y140S/Y195H/Y33H/Y91S).
T5 construct: made in house
The settings on record: for IC50: read-out: Binding in vitro (IC50, [nM]).

For the next experiment, the target named is HLA-A*26:01 (Homo sapiens, UniProt P04439, A114D/A173T/A270S/D101N/D185E/E277Q/E87N/F33Y/G231S/I121R/I218V/K168Q/L180W/L300P/L318F/P208A/P217A/Q86R/Q94H/R138Q/S129P/T187R/T323A/T345S/V100A/V358M).
A further experiment has as its target T6, HLA-B*44:02 (Homo sapiens, UniProt P01889, A223V/A65T/A93T/A95T/D201E/D98Y/E176V/E187L/E204Q/E69K/G107R/H137Y/K202T/L105A/L119I/N104T/N87E/Q56L/Q94N/R106L/R155S/R180D/S101N/S121R/S35A/S48T/T118I/V36M/W191S/Y140D/Y91S).
T6 construct: made in house
The settings on record: synthetic peptide, purified MHC.

The next experiment addresses T7, HLA-A*02:01 (Homo sapiens, UniProt P04439, D140Y/D185E/D98H/E176V/E277Q/G131W/G231S/I119V/I121R/I166T/I218V/L300P/L318F/N151K/N90K/P208A/P217A/Q86G/Q94H/R138H/R169H/T345S).
T7 construct: made in house

pIC50: −log10 of the molar value. Where two headings read alike, the source gives them in different places. Where no end group is shown, it is not given here. A value given as a limit tells only on which side of the number the result lay.

Consider APRITFGGP [Peptide 29], for which the pIC50 on HLA-B*15:01, against HLA-B*51:01, at HLA-A*01:01, against HLA-B*44:03, on HLA-B*18:01 and at HLA-A*26:01 was below 4.15 in each case. Further, the pIC50 at HLA-B*44:02 is below 4.15.
On to GLITLSYHL, for which, on HLA-A*02:01 (HLA allele A0201, peptide detected in HEK293T, IC50 <500 nM indicates binding, read-out: Binding in vitro (IC50, [nM])), the IC50 was below 0.5 nM. The negative-log IC50 (pIC50) at HLA-A*02:01 (read-out: IC50, binding to HLA-A*02:01) is above 9.30.
With KNIDGYFKIY, on HLA-B*18:01, the IC50 is above 70000 nM.
The same measure, in the same setting: under DEFVVVTV stands below 0.5 nM.

A word on the pIC50: it is −log10 of the IC50, conventionally taken in molar units. As usually defined, the IC50 is the concentration needed to halve the response being measured.

The values are drawn from patent US12419948B2, “Immunogenic compositions and use thereof” (priority 2020, dated 2025).
